Assay results taken from ChEMBL document CHEMBL1135875, “Hydrophobic modifications at 1-phosphate of inositol 1,4,5-trisphosphate analogues enhance receptor binding” (Bioorg Med Chem Lett, 2002).

How the values were obtained:
[1] = biological target: T1, Inositol 1,4,5-trisphosphate-gated calcium channel ITPR1 (Homo sapiens, UniProt Q14643); assay: Dissociation constant using IP3-binding domain (IBD) of human Type 1 inositol 1,4,5-trisphosphate receptor
[2] = biological target: T1, Inositol 1,4,5-trisphosphate-gated calcium channel ITPR1; assay: Affinity towards IP3-binding domain (IBD) of human Type 1 inositol 1,4,5-trisphosphate receptor was determined relative to compound 2

T1 sequence (Q14643 whole entry, the tested form may be a part): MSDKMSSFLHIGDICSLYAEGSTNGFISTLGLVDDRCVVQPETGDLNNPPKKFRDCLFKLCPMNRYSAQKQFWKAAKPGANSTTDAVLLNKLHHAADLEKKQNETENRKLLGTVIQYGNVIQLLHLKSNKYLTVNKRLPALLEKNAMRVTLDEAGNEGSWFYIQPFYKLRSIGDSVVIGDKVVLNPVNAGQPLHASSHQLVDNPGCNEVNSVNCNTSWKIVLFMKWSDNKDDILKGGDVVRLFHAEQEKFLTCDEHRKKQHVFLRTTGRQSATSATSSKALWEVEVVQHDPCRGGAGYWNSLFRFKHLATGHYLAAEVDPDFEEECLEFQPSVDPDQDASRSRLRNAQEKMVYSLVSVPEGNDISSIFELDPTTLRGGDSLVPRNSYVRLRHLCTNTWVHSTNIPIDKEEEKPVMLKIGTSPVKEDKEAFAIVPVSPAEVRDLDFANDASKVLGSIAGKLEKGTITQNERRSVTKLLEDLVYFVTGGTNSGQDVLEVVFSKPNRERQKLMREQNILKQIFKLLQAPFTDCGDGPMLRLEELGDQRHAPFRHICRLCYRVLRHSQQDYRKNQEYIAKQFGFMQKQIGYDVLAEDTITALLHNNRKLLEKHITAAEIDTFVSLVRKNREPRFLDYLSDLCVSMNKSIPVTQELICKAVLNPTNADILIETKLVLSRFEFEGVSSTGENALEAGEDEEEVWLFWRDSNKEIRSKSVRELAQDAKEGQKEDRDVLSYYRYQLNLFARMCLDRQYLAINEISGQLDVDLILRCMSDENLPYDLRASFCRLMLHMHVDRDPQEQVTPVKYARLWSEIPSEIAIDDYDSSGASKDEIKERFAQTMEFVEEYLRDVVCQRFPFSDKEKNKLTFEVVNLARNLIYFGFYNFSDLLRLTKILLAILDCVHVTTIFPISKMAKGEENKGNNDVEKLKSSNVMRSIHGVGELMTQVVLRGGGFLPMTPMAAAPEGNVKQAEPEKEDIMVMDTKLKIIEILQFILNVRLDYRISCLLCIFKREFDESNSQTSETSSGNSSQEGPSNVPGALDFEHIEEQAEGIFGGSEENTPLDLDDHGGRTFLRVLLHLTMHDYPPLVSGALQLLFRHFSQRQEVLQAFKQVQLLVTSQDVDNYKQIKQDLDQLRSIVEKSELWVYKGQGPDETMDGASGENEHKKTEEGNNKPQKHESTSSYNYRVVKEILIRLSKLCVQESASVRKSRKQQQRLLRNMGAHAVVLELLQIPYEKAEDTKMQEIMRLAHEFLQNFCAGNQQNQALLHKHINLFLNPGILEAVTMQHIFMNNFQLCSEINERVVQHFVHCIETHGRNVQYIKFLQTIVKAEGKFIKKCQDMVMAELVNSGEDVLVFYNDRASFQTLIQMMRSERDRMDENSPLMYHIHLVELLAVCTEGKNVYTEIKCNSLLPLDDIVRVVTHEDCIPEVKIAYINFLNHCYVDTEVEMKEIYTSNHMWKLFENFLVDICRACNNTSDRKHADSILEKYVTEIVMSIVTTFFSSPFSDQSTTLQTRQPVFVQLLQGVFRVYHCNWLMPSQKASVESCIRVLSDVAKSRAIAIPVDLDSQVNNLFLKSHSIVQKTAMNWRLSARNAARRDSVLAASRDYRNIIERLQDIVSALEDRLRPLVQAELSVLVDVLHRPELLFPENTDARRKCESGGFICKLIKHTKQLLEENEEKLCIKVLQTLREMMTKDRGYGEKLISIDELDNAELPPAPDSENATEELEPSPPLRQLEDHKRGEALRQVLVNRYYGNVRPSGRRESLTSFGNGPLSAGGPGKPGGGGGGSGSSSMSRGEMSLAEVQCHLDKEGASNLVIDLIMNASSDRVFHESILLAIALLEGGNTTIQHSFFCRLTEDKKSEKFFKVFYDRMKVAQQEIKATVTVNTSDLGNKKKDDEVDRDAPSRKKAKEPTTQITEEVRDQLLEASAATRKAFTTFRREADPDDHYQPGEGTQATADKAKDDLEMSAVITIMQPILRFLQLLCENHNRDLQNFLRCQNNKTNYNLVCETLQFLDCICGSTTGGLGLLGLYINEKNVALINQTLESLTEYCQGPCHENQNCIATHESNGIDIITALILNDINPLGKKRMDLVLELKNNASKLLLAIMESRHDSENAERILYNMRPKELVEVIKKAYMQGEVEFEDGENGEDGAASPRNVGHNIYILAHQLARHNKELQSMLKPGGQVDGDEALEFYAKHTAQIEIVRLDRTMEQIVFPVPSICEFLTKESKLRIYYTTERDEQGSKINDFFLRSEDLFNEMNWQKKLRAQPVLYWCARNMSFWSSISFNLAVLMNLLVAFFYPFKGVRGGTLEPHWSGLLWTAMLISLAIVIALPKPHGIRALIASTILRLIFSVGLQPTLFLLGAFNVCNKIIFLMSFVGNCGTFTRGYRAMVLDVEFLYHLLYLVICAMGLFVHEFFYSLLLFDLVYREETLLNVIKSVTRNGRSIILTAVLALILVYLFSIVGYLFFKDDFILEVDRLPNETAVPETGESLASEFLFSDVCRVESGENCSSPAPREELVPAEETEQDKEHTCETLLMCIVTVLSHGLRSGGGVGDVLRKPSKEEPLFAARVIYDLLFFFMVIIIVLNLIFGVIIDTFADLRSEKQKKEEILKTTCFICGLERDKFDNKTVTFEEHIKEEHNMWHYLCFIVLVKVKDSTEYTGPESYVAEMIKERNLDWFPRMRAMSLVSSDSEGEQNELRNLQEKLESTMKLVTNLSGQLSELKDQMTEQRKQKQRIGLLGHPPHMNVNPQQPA

NCCCOP(=O)(O)O[C@@H]1[C@H](O)[C@H](O)[C@@H](OP(=O)(O)O)[C@H](OP(=O)(O)O)[C@H]1O
Kd [1]: 1500 nM
Relative affinity [2]: 1

CN(C)c1ccc(C(=C2C=CC(=[N+](C)C)C=C2)c2ccc(C(=O)NCCCOP(=O)(O)O[C@@H]3[C@H](O)[C@H](O)[C@@H](OP(=O)(O)O)[C@H](OP(=O)(O)O)[C@H]3O)cc2)cc1
Relative affinity [2]: 950

CN(C)c1ccc2c(-c3ccc(C(=O)NCCCOP(=O)(O)O[C@@H]4[C@H](O)[C@H](O)[C@@H](OP(=O)(O)O)[C@H](OP(=O)(O)O)[C@H]4O)cc3C(=O)[O-])c3ccc(=[N+](C)C)cc-3oc2c1
Kd [1]: 620 nM
Relative affinity [2]: 2.4
